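In this assay, cells in 96-well plates receive the compound at five concentrations for 48 hours. Endpoints are linearly interpolated between the surrounding concentrations. Abbreviation: GI50, concentration required for 50% inhibition of growth. Definition used: TGI = concentration required for complete inhibition of growth.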
Columns and labels:
Assay in all cases: NCI tumour cell line growth inhibition, 48 h
786-0 renal = test system: 786-0 renal
HCT-116 colon = test system: HCT-116 colon
LOX IMVI melanoma = test system: LOX IMVI melanoma
MOLT-4 leukemia = test system: MOLT-4 leukemia
SNB-19 CNS = test system: SNB-19 CNS
SNB-75 CNS = test system: SNB-75 CNS
UACC-257 melanoma = test system: UACC-257 melanoma
EKVX NSCLC = test system: EKVX NSCLC

| Compound | GI50 (786-0 renal) [µM] | TGI (786-0 renal) [µM] | GI50 (HCT-116 colon) [µM] | TGI (HCT-116 colon) [µM] | GI50 (LOX IMVI melanoma) [µM] | TGI (LOX IMVI melanoma) [µM] | GI50 (MOLT-4 leukemia) [µM] | TGI (MOLT-4 leukemia) [µM] | GI50 (SNB-19 CNS) [µM] | TGI (SNB-19 CNS) [µM] | GI50 (SNB-75 CNS) [µM] | TGI (SNB-75 CNS) [µM] | GI50 (UACC-257 melanoma) [µM] | TGI (UACC-257 melanoma) [µM] | GI50 (EKVX NSCLC) [µM] | TGI (EKVX NSCLC) [µM] |
| --- | --- | --- | --- | --- | --- | --- | --- | --- | --- | --- | --- | --- | --- | --- | --- | --- |
| CCCc1cc(=O)[nH]c(-n2nc(C)cc2C)n1 | 7.62 | > 100 | 3.3 | 67.3 | 2.81 | > 100 | 3.44 | > 100 | 4.5 | > 100 | 40.3 | > 100 | 6.23 | 40 | – | – |
| Cc1cc(Cl)ccc1Nc1nc(C(F)(F)F)ccc1C(=O)N/N=C/c1ccc(Cl)cc1 | 2.04 | 5.74 | 2.46 | 9.87 | 1.38 | 11.7 | 0.75 | 4.35 | 2.6 | 12.4 | 1.51 | 6.48 | 3.67 | 16.3 | 1.25 | 4.45 |
| COc1cc2oc3cc(=O)cc4oc(-c5ccccc5)cc(c2c2c1CCC(c1ccccc1)O2)c43 (centres undefined) | – | > 100 | – | > 100 | – | > 100 | – | > 100 | – | > 100 | – | > 100 | – | 69 | – | > 100 |
| COc1cc(Nc2c(C#N)cnc3cc(OCCCN4CCN(C)CC4)c(OC)cc23)c(Cl)cc1Cl | 2.09 | 9.93 | 0.746 | 4.71 | 1.15 | 2.75 | 1.91 | 7.38 | 9.26 | 21.1 | 0.707 | 8.38 | 1.76 | 3.46 | – | – |
| COC1=CC(c2ccc[nH]2)=N/C1=C\c1[nH]c(C)c(C(=O)CCCCC(=O)NC(C)(C)C)c1C | 1.7 | 3.36 | 1.2 | 2.43 | 1.15 | 2.42 | 0.854 | 4.29 | 3.01 | 18.7 | 2.79 | 9 | 16 | 35.8 | 1.96 | 13 |
| CCOC(=O)c1cc2c(n1Cc1cccc(OC)c1)-c1oncc1CCC2 | 6.65 | > 100 | 0.534 | > 100 | 2.93 | > 100 | 3.18 | > 100 | 25.3 | > 100 | 0.927 | 6.56 | 3.51 | > 100 | – | – |
| O=c1cc(-c2ccccc2F)[nH]c2ccc(N3CCCC3)cc12 | < 0.001 | > 100 | – | – | < 0.001 | > 100 | < 0.001 | > 100 | < 0.001 | 0.0725 | – | > 100 | – | > 100 | > 100 | – |
| c1csc(-c2cn3nc(-c4c[nH]c5ccccc45)sc3n2)c1 | 3.06 | > 100 | 0.627 | 70.6 | – | – | – | – | 2.56 | > 100 | 0.445 | 8.09 | 11.4 | 98.3 | 1.99 | > 100 |
| CCC(C)[C@H]1O[C@]2(C=C[C@@H]1C)C[C@@H]1C[C@@H](C/C=C(\C)[C@@H](OC3C[C@H](OC)C(O[C@H]4C[C@H](OC)[C@@H](O)[C@H](C)O4)[C@H](C)O3)[C@@H](C)/C=C/C=C3\CO[C@@H]4[C@H](O)C(C)=C[C@@H](C(=O)O1)[C@]34O)O2 (some centres undefined) | 0.728 | 1.56 | 0.752 | 1.53 | – | – | – | – | 3.38 | 41.1 | 2.74 | 9.09 | 1.56 | 5.74 | – | – |
| NC(=O)c1ccccc1Nc1ccc2nnc(-c3ccncc3)n2n1 | 10.8 | 23.1 | 3.77 | 14.3 | 1.87 | 3.75 | 5.18 | 30.4 | 14.4 | 31.8 | 13.6 | 26.5 | – | – | – | – |
| CCn1cnc(C[C@H](NC(=O)[C@@H](NC(=O)Nc2cc(C(F)(F)F)cc(C(F)(F)F)c2)C(C)C)C(=O)OC)c1 | 1.81 | 3.67 | 1.86 | 3.93 | 2.5 | 7.43 | 2.99 | 9.35 | 1.61 | 3.19 | 1.61 | 6.82 | > 10 | > 10 | – | – |
| O=C(Nc1cccc(-n2cc(-c3ccncc3)c(-c3ccc(Cl)c(O)c3)n2)c1)c1ccc(N2CCOCC2)c(C(F)(F)F)c1 | 2.83 | 12.5 | 2.87 | > 50 | 1.64 | 7.29 | 2.37 | 36.7 | 4.11 | > 50 | 1.3 | > 50 | 6.3 | 36.8 | – | – |
| COc1ccc(/C=C/C(=O)c2ccc(O)c(CN3CCN(c4cc5c(cc4F)c(=O)c(C(=O)O)cn5C4CC4)CC3)c2)cc1 | 0.854 | > 100 | 0.368 | > 100 | – | – | 5.29 | > 100 | 0.785 | > 100 | 0.726 | 6.86 | 2.17 | 69.9 | 8.35 | > 100 |
| O=C(Nc1ccncc1)C(=O)c1cn(Cc2ccc(Cl)cc2)c2ccccc12 | 0.0533 | > 100 | 0.048 | > 100 | 0.0574 | > 100 | 0.064 | > 100 | 0.0622 | > 100 | 0.0375 | 3.79 | – | – | 0.261 | > 100 |
| CC(=O)C(=Cc1ccc(C=C(C(C)=O)C(C)=O)cc1)C(C)=O | – | 5.84 | – | 1.81 | – | 1.91 | – | 3.6 | – | 5.46 | – | – | – | 4.48 | – | 8.76 |
| COc1ccc(-c2nc(-c3ccccc3)c(-c3ccccc3)[nH]2)cc1OC1CCCC1 | > 100 | > 100 | > 100 | > 100 | 34.3 | > 100 | 71.2 | > 100 | > 100 | > 100 | > 100 | > 100 | > 100 | > 100 | – | – |

From PubChem BioAssay (NCI)
